The source of these data is PubChem BioAssay AID248 (DTP/NCI, 2004).

The assay concerns L1210 leukemia ip in BDF1 mice, survival T/C. Briefly: NCI In Vivo Anticancer Drug Screen. Data for tumor model L1210 Leukemia (intraperitoneal) in B6D2F1 (BDF1) mice. The following applies: endpoint: mean survival time, higher = longer survival. The gist of the method:
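Ratio derived from survival: compound-dosed mice over vehicle-dosed mice, all bearing a transplantable tumor.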

[1] abbreviates: dose: 100.0 mg/kg/injection, schedule: Q01DX001 (ip), vehicle: saline.
Setting [2] is: dose: 200.0 mg/kg/injection, schedule: Q01DX001 (ip), vehicle: saline.
[3] abbreviates: dose: 100.0 mg/kg/injection, schedule: Q04DX003 (ip), vehicle: Klucel (hydroxypropylcellulose) (HPC).
Where [4] appears, read: dose: 200.0 mg/kg/injection, schedule: Q04DX003 (ip), vehicle: Klucel (hydroxypropylcellulose) (HPC).
[5] abbreviates: dose: 400.0 mg/kg/injection, schedule: Q04DX003 (ip), vehicle: Klucel (hydroxypropylcellulose) (HPC).

Toxic doses and inconclusive results are not listed.

As for `[N-]=[N+]=CC(=O)CCC(N)C(=O)O` (stereo not drawn), the T/C is, setting by setting: (dose: 0.01 mg/kg/injection, schedule: Q01DX015 (ip), vehicle: water) 101 % of control; (dose: 0.03 mg/kg/injection, schedule: Q01DX015 (ip), vehicle: water) 118 % of control; (dose: 0.05 mg/kg/injection, schedule: Q01DX009 (ip), vehicle: saline) 118 % of control; (dose: 0.06 mg/kg/injection, schedule: Q01DX009 (oral), vehicle: saline) 114 % of control; (dose: 0.1 mg/kg/injection, schedule: Q01DX015 (ip), vehicle: other) 168 % of control; (dose: 0.1 mg/kg/injection, schedule: Q01DX015 (ip), vehicle: water) 154 % of control. The T/C is, setting by setting: (dose: 0.2 mg/kg/injection, schedule: Q01DX009 (ip), vehicle: saline) 120 % of control; (dose: 0.2 mg/kg/injection, schedule: Q01DX009 (oral), vehicle: saline) 150 % of control; (dose: 0.2 mg/kg/injection, schedule: Q01DX015 (ip), vehicle: other) 210 % of control; (dose: 0.2 mg/kg/injection, schedule: Q01DX015 (ip), vehicle: water) 156 % of control; (dose: 0.25 mg/kg/injection, schedule: Q01DX009 (oral), vehicle: saline) 164 % of control; (dose: 0.39 mg/kg/injection, schedule: Q03HX016 (ip), vehicle: saline) 150 % of control. The T/C was 184 % of control (dose: 0.39 mg/kg/injection, schedule: Q03HX024 (ip), vehicle: saline); 104 % of control (dose: 0.4 mg/kg/injection, schedule: Q01DX009 (ip), vehicle: saline); 218 % of control (dose: 0.4 mg/kg/injection, schedule: Q01DX015 (ip), vehicle: water); 162 % of control (dose: 0.4 mg/kg/injection, schedule: Q02DX005 (oral), vehicle: saline); 168 % of control (dose: 0.6 mg/kg/injection, schedule: Q01DX015 (ip), vehicle: water); 156 % of control (dose: 0.63 mg/kg/injection, schedule: Q02DX008 (ip), vehicle: water). The T/C was 165 % of control (dose: 0.78 mg/kg/injection, schedule: Q03HX016 (ip), vehicle: saline); 194 % of control (dose: 0.78 mg/kg/injection, schedule: Q03HX024 (ip), vehicle: saline); 150 % of control (dose: 0.8 mg/kg/injection, schedule: Q02DX005 (oral), vehicle: saline); 180 % of control (dose: 1.25 mg/kg/injection, schedule: Q02DX008 (ip), vehicle: water); 162 % of control (dose: 1.25 mg/kg/injection, schedule: Q02DX008 (oral), vehicle: water); 160 % of control (dose: 1.56 mg/kg/injection, schedule: Q03HX016 (ip), vehicle: saline). Also, the T/C was 174 % of control (dose: 1.56 mg/kg/injection, schedule: Q03HX024 (ip), vehicle: saline); 167 % of control (dose: 1.6 mg/kg/injection, schedule: Q02DX005 (oral), vehicle: saline); 187 % of control (dose: 2.5 mg/kg/injection, schedule: Q02DX008 (ip), vehicle: other); 156 % of control (dose: 2.5 mg/kg/injection, schedule: Q02DX008 (oral), vehicle: other); 205 % of control (dose: 2.5 mg/kg/injection, schedule: Q02DX008 (oral), vehicle: water); 90 % of control (dose: 3.12 mg/kg/injection, schedule: Q03HX024 (ip), vehicle: saline). Besides, the T/C was 150 % of control (dose: 3.12 mg/kg/injection, schedule: Q04DX003 (ip), vehicle: saline); 153 % of control (dose: 3.2 mg/kg/injection, schedule: Q02DX005 (oral), vehicle: saline); 216 % of control (dose: 5.0 mg/kg/injection, schedule: Q02DX008 (ip), vehicle: other); 169 % of control (dose: 5.0 mg/kg/injection, schedule: Q02DX008 (oral), vehicle: other); 170 % of control (dose: 6.25 mg/kg/injection, schedule: Q04DX003 (ip), vehicle: saline); 179 % of control (dose: 6.4 mg/kg/injection, schedule: Q02DX005 (oral), vehicle: saline). Besides, the T/C by setting is: (dose: 10.0 mg/kg/injection, schedule: Q02DX008 (oral), vehicle: other) 205 % of control; (dose: 12.5 mg/kg/injection, schedule: Q04DX003 (ip), vehicle: saline) 181 % of control; (dose: 12.5 mg/kg/injection, schedule: Q08DX002 (ip), vehicle: saline) 150 % of control; (dose: 12.8 mg/kg/injection, schedule: Q02DX005 (oral), vehicle: saline) 185 % of control; (dose: 15.0 mg/kg/injection, schedule: Q02DX008 (ip), vehicle: other) 104 % of control; (dose: 15.0 mg/kg/injection, schedule: Q02DX008 (oral), vehicle: other) 184 % of control. In addition, the T/C by setting is: (dose: 20.0 mg/kg/injection, schedule: Q02DX008 (oral), vehicle: other) 197 % of control; (dose: 25.0 mg/kg/injection, schedule: Q01DX001 (ip), vehicle: water) 123 % of control; (dose: 25.0 mg/kg/injection, schedule: Q08DX002 (ip), vehicle: saline) 151 % of control; (dose: 25.0 mg/kg/injection, schedule: Q## X003 (ip), vehicle: saline) 167 % of control; (dose: 26.0 mg/kg/injection, schedule: Q02DX005 (oral), vehicle: saline) 187 % of control; (dose: 50.0 mg/kg/injection, schedule: Q## X002 (ip), vehicle: saline) 165 % of control. Also, the T/C is, setting by setting: (dose: 50.0 mg/kg/injection, schedule: Q## X016 (ip), vehicle: saline) 98 % of control; under setting [1], 156 % of control; (dose: 100.0 mg/kg/injection, schedule: Q## X002 (ip), vehicle: saline) 168 % of control; (dose: 100.0 mg/kg/injection, schedule: Q## X003 (ip), vehicle: saline) 92 % of control; (dose: 150.0 mg/kg/injection, schedule: Q01DX001 (ip), vehicle: water) 159 % of control; under setting [2], 110 % of control. Also, the T/C was 151 % of control (dose: 200.0 mg/kg/injection, schedule: Q01DX001 (ip), vehicle: water); 97 % of control (dose: 200.0 mg/kg/injection, schedule: Q## X002 (ip), vehicle: saline); 89 % of control (dose: 400.0 mg/kg/injection, schedule: Q## X002 (ip), vehicle: saline); 98 % of control (dose: 25.0 micrograms/kg/injection, schedule: Q01DX010 (ip), vehicle: saline); 112 % of control (dose: 50.0 micrograms/kg/injection, schedule: Q01DX010 (ip), vehicle: saline).

Consider `NC(=O)c1ccccc1Nc1ccc([N+](=O)[O-])cc1[N+](=O)[O-]`, for which the T/C (dose: 34.0 mg/kg/injection, schedule: Q01DX Z (ip), vehicle: carboxymethylcellulose (CMC)) was 95 % of control and the T/C (dose: 49.0 mg/kg/injection, schedule: Q01DX Z (ip), vehicle: carboxymethylcellulose (CMC)) was 95 % of control.

For the compound `COc1ccc(CC2c3cc(OC)c(OC)cc3CC[N+]2(C)C)cc1OC` (stereo not drawn), the T/C (dose: 12.5 mg/kg/injection, schedule: Q01DX009 (ip), vehicle: saline sonified) is 103 % of control; the T/C (dose: 25.0 mg/kg/injection, schedule: Q01DX009 (ip), vehicle: saline sonified) was 108 % of control; the T/C (dose: 50.0 mg/kg/injection, schedule: Q01DX001 (ip), vehicle: Klucel (hydroxypropylcellulose) (HPC)) was 95 % of control; the T/C (dose: 50.0 mg/kg/injection, schedule: Q01DX009 (ip), vehicle: saline sonified) was 102 % of control.

On to `Cc1ccc(S(=O)(=O)N(CCCc2c(C)ncnc2Cl)c2ccccc2)cc1`, for which the T/C reads like this: (dose: 50.0 mg/kg/injection, schedule: Q01DX001 (ip), vehicle: saline) 101 % of control; under setting [1], 92 % of control; under setting [2], 98 % of control; (dose: 400.0 mg/kg/injection, schedule: Q01DX001 (ip), vehicle: saline) 95 % of control.

Consider `COC(=O)c1nc2c(N)nc(-c3ccccc3)nc2nc1N`, for which the T/C is 103 % of control under setting [3], 98 % of control under setting [4] and 106 % of control under setting [5].

`OCc1cccs1`: the T/C was 108 % of control (dose: 100.0 mg/kg/injection, schedule: Q01DX009 (ip), vehicle: Klucel (hydroxypropylcellulose) (HPC)); 97 % of control under setting [3]; 94 % of control (dose: 200.0 mg/kg/injection, schedule: Q01DX009 (ip), vehicle: Klucel (hydroxypropylcellulose) (HPC)); 97 % of control under setting [4]; 103 % of control (dose: 400.0 mg/kg/injection, schedule: Q01DX009 (ip), vehicle: Klucel (hydroxypropylcellulose) (HPC)); 97 % of control under setting [5].
